Test results taken from US20100144755A1 (Glaxo Group Limited, priority 2006, published 2010).

Tests used:
[1] = tested on: TNF-stimulated IL8 production by human neutrophils; experiment: TNF-stimulated IL-8 production from human neutrophils; assay type: cell-based; details: Neutrophil, TNF 100 ng/ml, about 20 hrs, bounds reflect the top concentration screened, for 202(c) and 120 a range over multiple runs with ends given as 'greater than';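 further: IL-8 in cell-free supernatant quantified by sandwich ELISA, inhibition calculated against a compound-free control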
Description: TNF-Stimulated IL-8 Production from Human Neutrophils
The effect of test compounds on TNF-stimulated IL8 production by human neutrophils is measured as follows. Neutrophils are prepared from blood obtained from consenting donors, using standard methods. Blood is collected in heparinized syringes and layered over histopaque (30 ml/20 ml). Following centrifugation, the red cell pellet is resuspended in PBS and purified over a dextran gradient. […] Cells are added (0.5-1 ml) to 48 well plates already containing compound at 1000× final concentration in neat DMSO or 10% DMSO in RPMI1640 with 10% FBS. TNF (final concentration 100 ng/ml) is used as the stimulus. Cells incubated for approximately 20 hrs at 37° C., 5% CO2. Levels of IL-8 in the cell free supernatant are determined by sandwich ELISA, and inhibition relative to a control with DMPO but no compound is calculated.

[2] = tested on: influx of neutrophils to the lung in LPS-challenged rats; experiment: Rat LPS neutrophilia model; assay type: in vivo; details: LPS aerosol, intratracheal dosing, in at least one of the range of conditions tested, significance p<0.05
Procedure, shortened: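 Compound given intratracheally (200 ul suspension or dry powder via microsprayer) to isoflurane-anesthetized rats 15 min–24 h before 15 min LPS aerosol (100 ug/ml). Lavage 4 h post-challenge; neutrophils from differential counts. % inhibition versus no-compound controls at a given concentration and pretreat time.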

Cc1ccc(NC(=O)c2ccc(Cl)nc2)cc1-c1nc(NC2CCNCC2)nc2c1ccc(=O)n2-c1c(F)cccc1F [14(c), 6-chloro-N-{3-[8-(2,6-difluorophenyl)-7-oxo-2-(4-piperidinylamino)-7,8-dihydropyrido[2,3-d]pyrimidin-4-yl]-4-methylphenyl}-3-pyridinecarboxamide]
IC50 [1]: > 0.1 µM

Cc1ccc(NC(=O)c2cccs2)cc1-c1nc(S(C)(=O)=O)nc2c1ccc(=O)n2-c1c(F)cccc1F [7(c), N-{3-[8-(2,6-difluorophenyl)-2-(methylsulfonyl)-7-oxo-7,8-dihydropyrido[2,3-d]pyrimidin-4-yl]-4-methylphenyl}-2-thiophenecarboxamide]
IC50 [1]: > 0.1 µM

CCN(CC)CCCNc1nc(-c2cccc(C(=O)NCC(C)C)c2C)c2ccc(=O)n(-c3c(F)cccc3F)c2n1 [Example 154, 3-[2-{[3-(diethylamino)propyl]amino}-8-(2,6-difluorophenyl)-7-oxo-7,8-dihydropyrido[2,3-d]pyrimidin-4-yl]-2-methyl-N-(2-methylpropyl)benzamide]
IC50 [1]: > 0.1 µM

Cc1ccc(C(=O)O)cc1-c1nc(NC(CO)CO)nc2c1ccc(=O)n2-c1c(F)cccc1F [80(a), 3-(8-(2,6-difluorophenyl)-2-{[2-hydroxy-1-(hydroxymethyl)-ethyl]amino}-7-oxo-7,8-dihydropyrido[2,3-d]pyrimidin-4-yl)-4-methylbenzoic acid]
IC50 [1]: > 0.1 µM

Cc1ccc(NC(=O)c2ccc(Cl)nc2)cc1-c1nc(NCc2ncc[nH]2)nc2c1ccc(=O)n2-c1c(F)cccc1F [Example 17, 6-chloro-N-(3-{8-(2,6-difluorophenyl)-2-[(1H-imidazol-2-ylmethyl)amino]-7-oxo-7,8-dihydropyrido[2,3-d]pyrimidin-4-yl}-4-methylphenyl)-3-pyridinecarboxamide]
IC50 [1]: > 0.1 µM

CNCCNc1nc(-c2cc(NC(=O)c3cccs3)ccc2C)c2ccc(=O)n(-c3c(F)cccc3F)c2n1 [Example 11, N-[3-(8-(2,6-difluorophenyl)-2-{[2-(methylamino)ethyl]amino}-7-oxo-7,8-dihydropyrido[2,3-d]pyrimidin-4-yl)-4-methylphenyl]-2-thiophenecarboxamide]
IC50 [1]: > 0.1 µM

Cc1cc(C(=O)Nc2ccc(C)c(-c3nc(NC4CCNCC4)nc4c3ccc(=O)n4-c3c(F)cccc3F)c2)ccc1F [12(c), N-{3-[8-(2,6-difluorophenyl)-7-oxo-2-(4-piperidinylamino)-7,8-dihydropyrido[2,3-d]pyrimidin-4-yl]-4-methylphenyl}-4-fluoro-3-methylbenzamide]
IC50 [1]: > 0.1 µM

CCCNC(=O)c1ccc(-c2nc(NCCCN(CC)CC)nc3c2ccc(=O)n3-c2c(F)cccc2F)cc1 [188(b), 4-[2-{[3-(diethylamino)propyl]amino}-8-(2,6-difluorophenyl)-7-oxo-7,8-dihydropyrido[2,3-d]pyrimidin-4-yl]-N-propylbenzamide]
IC50 [1]: > 0.1 µM

Cc1ccc(C(=O)NCc2ccccc2)cc1-c1nc([S+](C)[O-])nc2c1ccc(=O)n2-c1c(F)cccc1F (centres unmarked) [116(b), 3-[8-(2,6-difluorophenyl)-2-(methylsulfinyl)-7-oxo-7,8-dihydropyrido[2,3-d]pyrimidin-4-yl]-4-methyl-N-(phenylmethyl)benzamide]
IC50 [1]: > 0.1 µM

Cc1ccc(N)cc1-c1nc(NC2CCNCC2)nc2c1ccc(=O)n2-c1c(F)cccc1F [Example 111, 4-(5-amino-methylphenyl)-8-(2,6-difluorophenyl)-2-(4-piperidinylamino)-pyrido[2,3-d]pyrimidin-7(8H)-one]
IC50 [1]: > 0.1 µM

CCN(CC)CCCNc1nc(-c2ccc(C(=O)Nc3nccs3)cc2)c2ccc(=O)n(-c3c(F)cccc3F)c2n1 [Example 192, 4-[2-{[3-(diethylamino)propyl]amino}-8-(2,6-difluorophenyl)-7-oxo-7,8-dihydropyrido[2,3-d]pyrimidin-4-yl]-N-1,3-thiazol-2-ylbenzamide]
IC50 [1]: > 0.1 µM

CCN(CC)CCCNc1nc(-c2ccc(C(=O)NC3CC3)cc2)c2ccc(=O)n(-c3c(F)cccc3F)c2n1 [Example 190, N-cyclopropyl-4-[2-{[3-(diethylamino)propyl]amino}-8-(2,6-difluorophenyl)-7-oxo-7,8-dihydropyrido[2,3-d]pyrimidin-4-yl]benzamide]
IC50 [1]: > 0.03 µM

CCCNC(=O)c1cccc(-c2nc(NCCCN(CC)CC)nc3c2ccc(=O)n3-c2c(F)cccc2F)c1C [Example 153, 3-[2-{[3-(diethylamino)propyl]amino}-8-(2,6-difluorophenyl)-7-oxo-7,8-dihydropyrido[2,3-d]pyrimidin-4-yl]-2-methyl-N-propylbenzamide]
IC50 [1]: > 0.1 µM

CCCNC(=O)c1cc(F)c(C)c(-c2nc(NCCCN(CC)CC)nc3c2ccc(=O)n3-c2c(F)cccc2F)c1 [Example 181, 3-[2-{[3-(diethylamino)propyl]amino}-8-(2,6-difluorophenyl)-7-oxo-7,8-dihydropyrido[2,3-d]pyrimidin-4-yl]-5-fluoro-4-methyl-N-propylbenzamide]
inhibition of neutrophilia [2]: statistically nonsignificant inhibition

CNCCNc1nc(-c2cc(C(=O)NCC3CC3)ccc2C)c2ccc(=O)n(-c3c(F)cccc3F)c2n1 [Example 4]
inhibition of neutrophilia [2]: statistically significant inhibition

Cc1ccc(C(=O)NC(C)C)cc1-c1nc(NCCN(C)C)nc2c1ccc(=O)n2-c1c(F)cccc1F [Example 117, 3-(8-(2,6-difluorophenyl)-2-{[2-(dimethylamino)ethyl]amino}-7-oxo-7,8-dihydropyrido[2,3-d]pyrimidin-4-yl)-4-methyl-N-(1-methylethyl)benzamide]
inhibition of neutrophilia [2]: statistically significant inhibition

CCNC(=O)c1ccc(C)c(-c2nc(NCCCN(CC)CC)nc3c2ccc(=O)n3-c2c(F)cccc2F)c1 [Example 129, 3-[2-{[3-(diethylamino)propyl]amino}-8-(2,6-difluorophenyl)-7-oxo-7,8-dihydropyrido[2,3-d]pyrimidin-4-yl]-N-ethyl-4-methylbenzamide]
inhibition of neutrophilia [2]: statistically nonsignificant inhibition

Cc1ccc(C(=O)NCC2CC2)cc1-c1nc(N2CCC(N)CC2)nc2c1ccc(=O)n2-c1c(F)cccc1F [Example 27, 3-[2-(4-amino-1-piperidinyl)-8-(2,6-difluorophenyl)-7-oxo-7,8-dihydropyrido[2,3-d]pyrimidin-4-yl]-N-(cyclopropylmethyl)-4-methylbenzamide]
inhibition of neutrophilia [2]: statistically significant inhibition

CCCNC(=O)c1ccc(C)c(-c2nc(N3CCC(N4CCC(C)CC4)CC3)nc3c2ccc(=O)n3-c2c(F)cccc2F)c1 [Example 166, 3-[8-(2,6-difluorophenyl)-2-(4-methyl-1,4′-bipiperidin-1′-yl)-7-oxo-7,8-dihydropyrido[2,3-d]pyrimidin-4-yl]-4-methyl-N-propylbenzamide]
inhibition of neutrophilia [2]: statistically significant inhibition

CNCCNc1nc(-c2cc(C(=O)NC3CCCC3)ccc2C)c2ccc(=O)n(-c3c(F)cccc3F)c2n1 [Example 58, N-cyclopentyl-3-(8-(2,6-difluorophenyl)-2-{[2-(methylamino)ethyl]amino}-7-oxo-7,8-dihydropyrido[2,3-d]pyrimidin-4-yl)-4-methylbenzamide]
inhibition of neutrophilia [2]: statistically significant inhibition

CNC1CCN(c2nc(-c3cc(C(=O)NC(C)C)ccc3C)c3ccc(=O)n(-c4c(F)cccc4F)c3n2)CC1 [113(b), 3-{8-(2,6-difluorophenyl)-2-[4-(methylamino)-1-piperidinyl]-7-oxo-7,8-dihydropyrido[2,3-d]pyrimidin-4-yl}-4-methyl-N-(1-methylethyl)benzamide]
inhibition of neutrophilia [2]: statistically nonsignificant inhibition

Cc1ccc(NC(=O)c2ccsc2)cc1-c1nc(NC2CC(C)(C)NC(C)(C)C2)nc2c1ccc(=O)n2-c1c(F)cccc1F [31(e), N-(3-{8-(2,6-difluorophenyl)-7-oxo-2-[(2,2,6,6-tetramethyl-4-piperidinyl)amino]-7,8-dihydropyrido[2,3-d]pyrimidin-4-yl}-4-methylphenyl)-3-thiophenecarboxamide]
inhibition of neutrophilia [2]: statistically significant inhibition

Cc1ccc(C(=O)Nc2nccs2)cc1-c1nc(NCCCNC(C)C)nc2c1ccc(=O)n2-c1c(F)cccc1F [Example 101, 3-[8-(2,6-difluorophenyl)-2-({3-[(1-methylethyl)amino]propyl}amino)-7-oxo-7,8-dihydropyrido[2,3-d]pyrimidin-4-yl]-4-methyl-N-1,3-thiazol-2-ylbenzamide]
inhibition of neutrophilia [2]: statistically significant inhibition

Cc1ccc(C(=O)Nc2ccc(F)cc2)cc1-c1nc(NCCN(C)C(=O)OC(C)(C)C)nc2c1ccc(=O)n2-c1c(F)cccc1F [Example 95, 1,1-dimethylethyl(2-{[8-(2,6-difluorophenyl)-4-(5-{[(4-fluorophenyl)amino]carbonyl}-2-methylphenyl)-7-oxo-7,8-dihydropyrido[2,3-d]pyrimidin-2-yl]amino}ethyl)methylcarbamate]
inhibition of neutrophilia [2]: statistically nonsignificant inhibition

Cc1ccc(C(=O)NCC(C)C)cc1-c1nc(N2CCC(N3CCC(C)CC3)CC2)nc2c1ccc(=O)n2-c1c(F)cccc1F [Example 168, 3-[8-(2,6-difluorophenyl)-2-(4-methyl-1,4′-bipiperidin-1′-yl)-7-oxo-7,8-dihydropyrido[2,3-d]pyrimidin-4-yl]-4-methyl-N-(2-methylpropyl)benzamide]
inhibition of neutrophilia [2]: inactive

CNCCNc1nc(-c2cc(C(=O)Nc3nccs3)ccc2C)c2ccc(=O)n(-c3c(F)cccc3F)c2n1 [Example 61, 3-(8-(2,6-difluorophenyl)-2-{[2-(methylamino)ethyl]amino}-7-oxo-7,8-dihydropyrido[2,3-d]pyrimidin-4-yl)-4-methyl-N-1,3-thiazol-2-ylbenzamide]
inhibition of neutrophilia [2]: statistically significant inhibition
